Several values for one entry are separate records, joined by “and”; a condition that tells them apart may be missing. Equal values may be shown once.
Assays:
[1] = system: wax moth (Galleria mellonella); assay: Control of wax moth in stored frames with drawn comb; format: in vivo; conditions: 1, 2 or 3 slow release strips with 60 grams 2-heptanone, after 5 weeks; equipment without 2-heptanone totally infested
Text: We conducted an experiment where we stored five frames with drawn comb in a nucleus colony box without bees present. In three nucleus colony boxes we placed 1, 2 or 3 strips containing 60 grams of 2-heptanone in a slow release formulation. In a fourth nucleus colony box we placed no 2-heptanone. Within 2 weeks after the start of the experiment, the equipment without 2-heptanone had wax moth adults present between the frames. The adults probably were laying eggs. After 5 weeks, the equipment without 2-heptanone was totally infested with wax moth. There still was no wax moth in any equipment containing 2-heptanone.

[2] = in words; cited from earlier work
[3] = system: honey bee (Apis mellifera L.) colony; assay: Maximum levels of 2-heptanone without negatively impacting bee behavior (observation hive); format: in vivo; conditions: pure 2-heptanone up to 500 μL on filter paper (2700 ppm v/v or 0.27%), queenless two-frame hive, 23° C.
Experimental: A test was conducted with 2-heptanone in pure form to determine its effects on honey bee (Apis mellifera L.) colony behavior and ascertain if there was a maximum dose of 2 heptanone that could induce a colony to leave their hive. Two full sized frames were taken from a colony in our local apiary and placed inside a two-frame observation hive having a total volume of 8565 cm^3.These two frames contained adult worker bees only and were queenless. A 2-day period when no testing occurred was included to allow for colony adjustment to the new dwellings. The observation hive was set up inside a greenhouse with a 2.5 cm tube connected from the side of the observation hive to the side wall of the greenhouse. This tube served as an exit and entrance for the workers.
We fastened a strip of filter paper measuring 7.6 cm by 2.5 cm to the top inside frame of the observation colony with a thumbtack and applied an initial 100 μL of pure 2-heptanone to the filter paper and observed worker behavior. Subsequent applications of 40 μL of 2-heptanone were applied every 4 minutes with observations of worker behavior documented. Ambient temperature at the time of the observations was 23° C. […]
Our experiment ended when 500 μL of pure 2-heptanone was the total amount on our filter paper. Concentration of 500 μL of 2-heptanone in the two-frame observation hive was calculated to be 2700 ppm v/v or 0.27%.

mites = assay: Minimum Level Treatment Effectiveness petri dish bioassay; format: in vivo; conditions: for # of Dead Mites/Total Mites: 17.5 hours exposure
Experimental: Determination of the minimum amount of 2-heptanone effective in mite mortality in our bioassay was performed according to the following procedure: 3 Kimwipes® were placed on the bottom of petri dishes and slightly moistened with water using a disposable 1 ml pipette. A cut section of Parafilm® M was placed over the moistened Kimwipes® and stretched up and over the outer edge of the petri dish bottom. […] A single Whatman® Filter paper (9.0 cm) was placed on top of the pierced Parafilm® area and pushed down to create space between the filter paper and the petri dish lid. Six to eight mites and two bee larvae were placed on top of the filter paper in each petri dish. A small strip of filter paper was taped to the inside top of each petri dish. Four groups of two petri dishes were labeled according to the type of treatment. The treatments were: 1 μL 2-heptanone; 5 μL 2-heptanone; 10 μL 2-heptanone; and Control (no treatment). All eight dishes were then placed in incubators set to maintain a temperature of 33-34.4° C. Our results were as follows:
In our second bioassay, the same protocol was applied; however we sought to investigate if lower amounts of 2-heptanone could be as effective. In this trial, amounts of 0.5 and 1 μL of 2-heptanone were used. After 17.5 hours exposure to 2-heptanone, our results were as follows: […]

[4] = Diffusion of 2-heptanone from controlled release strip; format: physicochemical; conditions: polyurethane core with 60 g 2-heptanone, in 5-frame colony
Experimental: This test (Trial 3) was carried out in 5-frame colonies as described above except for the following changes. In this test, 2-heptanone was released using a controlled release strip as described in U.S. Pat. No. 5,750,129. In brief, the controlled release strip was composed of a polymer sleeve 20 cm long and 5 cm wide in which a polyurethane core containing 60 g 2-heptanone was sealed. The 2-heptanone strip was placed on the top of the frame (top bar). The controlled diffusion of 2-heptanone through the membrane occurred over a period of 3 weeks. A new 2-heptanone controlled release strip was placed on the top bar after 3 weeks. The Apistan® strip was placed between the frames as described above. The Control comprised no treatment.

Varroa mites = assay: Attractant petri dish bioassay with 20% 2-heptanone gel formulation; format: in vivo, Varroa jacobsoni; conditions: 40 μL of 20% 2-heptanone gel
Experimental: We conducted bioassays to deternine if 2-heptanone attracts Varroa mites. In the first bioassay, we exposed free-running adult mites to volatiles from a 20% 2-heptanone in a gel formulation. […] 40 μL of 20% 2-heptanone in a gel formulation was added to a weighing boat located in the center of the petri dish. Control dishes were set up as described above with empty weighing boats in the center. Within 24 hours 27.3% of the mites were found in the gel formulation of 2-heptanone located in the weighing boat in the center of the petri dish. No mites were found in the weighing boat in the Control dish. The bioassay was repeated using the same procedure as described above. In the second replicate, 16.7% of the mites were found in the gel formulation of 2-heptanone located in the weighing boat in the center of the petri dish and again 0% were found in the weighing boats of the Control dishes.

## CCCCCC(C)=O [2-Heptanone]
[1]
  wax moth infestation of stored equipment: no wax moth
[2]
  solubility in water: very slightly soluble in water
[3]
  bees exiting the observation hive: At no time however, did all bees fully or permanently exit the observation hive
mites; 0.5 μL 2-heptanone, per dish
  # of Dead Mites/Total Mites: 1/6 and 1/5 and 2/6 and 0/5
mites; 1 μL 2-heptanone, per dish
  # of Dead Mites/Total Mites: 3/6 and 0/5 and 1/4 and 1/5
  % Mortality 25.5 hours: 50% and 66%
  % Mortality 40.5 hours: 50% and 66%
mites; 5 μL 2-heptanone, per dish
  % Mortality 40.5 hours: 100% and 68%
mites; 10 μL 2-heptanone, per dish
  % Mortality 17.5 hours: 66% and 40%
  % Mortality 25.5 hours: 66% and 50%
  % Mortality 40.5 hours: 66% and 60%
mites; mites inanimate at 1 hour, active again as 2-heptanone evaporated
  action on the mites at higher concentrations: knockdown action
mites; petri dish
  minimum amount of 2-heptanone that will cause mite mortality: 1 µL
[4]
  period of controlled diffusion of 2-heptanone through the membrane: 3 weeks
Varroa mites; second replicate, Control 0%
  % of the mites found in the gel formulation in the weighing boat: 16.7%
Varroa mites; within 24 hours, first bioassay, Control none
  % of the mites found in the gel formulation in the weighing boat: 27.3%

— US7423068B2, “Control of parasitic mites of honey bees” (The United States of America as represented by the …, priority 2001, dated 2008)
